Read-outs that look alike come from different tables or passages of the source.

As usually defined, the IC50 is the midpoint of a concentration-inhibition curve.

One data set has as its system MHV-nLuc. Nature of the data set: microbe, parasite or virus in culture. The class given is cell-based, mouse hepatitis virus (MHV). Particulars: Murine coronavirus, read-out: MHV-nLuc replication IC50.
The test system of a further data set is SARS-CoV-2-nLuc. The class given is cell-based.
For the next data set, the system named is SHC014-CoV-nLuc. The format is cell-based, bat.
The next data set deals with WIV1-CoV-nLuc. The format is cell-based, bat.
The subject of data set [1] is SARS-CoV-2 spike protein uptake, HEK293T-ACE2 cells. The class given is cell-based.
Data set [2] concerns SARS-CoV-2 spike protein uptake, Caco-2 cells. The class given is cell-based.
Data set [3] has as its system SARS-CoV-2 spike protein uptake, Calu-3 cells. The class given is cell-based.
In another data set the test system is kinases. The settings on record: cited from earlier work.
Data set [4] concerns SARS-CoV-2. Particulars: cited from earlier work.
The subject of data set [5] is SARS-CoV-2. The settings on record: cited from earlier work. The source holds these as a separate data set.
The next data set relates to Vero cells. The settings on record: cited from earlier work.
The subject of a further data set is A549-ACE2 cells. The settings on record: cited from earlier work.

`CC(=O)Nc1ccc2ccn(-c3cc(NC4CCC4)n4ncc(C#N)c4n3)c2c1` [Compound 17]: in the data set on MHV-nLuc, the concentration for half-maximal inhibition (IC50) is less than 1 µM.
Consider `CCC(=O)Nc1cc(Nc2cc(NC3CC3)n3ncc(C#N)c3n2)ccc1C` [SGC-CK2-1], for which the IC50 with MHV-nLuc was 0.21 µM. Besides, in the data set on SARS-CoV-2-nLuc, the “inhibition of SARS-CoV-2-nLuc replication” value is given as “inhibition of viral replication was observed”. For the same compound, the “effect on SHC014-CoV replication” value in the data set with SHC014-CoV-nLuc is reported as “dose-dependent decreases in viral replication”. The “effect on WIV1-CoV replication” value in the data set on WIV1-CoV-nLuc is given as “dose-dependent decreases in viral replication”. Moreover, the “decrease in spike protein uptake” value is 70–80% in [1], greater than 75% in data set [2] and greater than 75% in data set [3]. Moreover, the “kinases inhibited at 1 μM” value with kinases is 3 kinases.
For `O=C(O)c1ccc2c(c1)nc(Nc1cccc(Cl)c1)c1ccncc12` [silmitasertib], the concentration for half-maximal inhibition (IC50) is 0.63 µM with MHV-nLuc; 2.5 µM in the data set on SARS-CoV-2 [4] (read-out: antiviral activity IC50, SARS-CoV-2 in Vero cells); greater than 10 µM in the data set on SARS-CoV-2 [5] (read-out: inhibition of SARS-CoV-2 infection IC50, A549-ACE2 cells). For the same compound, in the data set with DBT cells, the “effect on cell viability of DBT cells” value is reported as “no effect on cell viability”. In addition, the “antiviral activity pIC50, SARS-CoV-2 in Vero cells” value in the data set with SARS-CoV-2 [4] is listed as 5.6. In addition, in the data set on SARS-CoV-2 [5], the “inhibition of SARS-CoV-2 infection pIC50, A549-ACE2 cells” value was less than 5. In addition, the cell toxicity result in the data set with Vero cells and in the data set on A549-ACE2 cells was “cell toxicity at micromolar doses” throughout.
